Structures are written as SMILES. Structures can show the parent of a compound that is named as a salt.

In general, IC50 refers to the concentration at which inhibition is half-maximal.

In the first assay the test system is Aβ1-42 production. Put plainly: Cellular assay for inhibition of Aβ1-42 production (H4 APP751 SWE clone 8.20). Type of assay: cell-based. As to conditions: 19 h, H4 APP751 SWE clone 8.20 cells, 19 h incubation; class symbols; read-out: Activity Rating (Aβ42 cellular IC50). In short, it runs like this:
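H4 cells stably expressing Swedish-mutant APP751 incubated with compound 19 h at 37 °C, 5% CO2. Secreted Aβ42 detected by HTRF with Aβ42 neoepitope antibody 565 (0.8 ng/well) and N-terminal 26D6 (75 ng/well), overnight at 4 °C. IC50 obtained by curve fitting.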
In the case of `CNc1nc(Nc2ccc(-n3cnc(Cl)c3)c(OC)c2)nc2c1CCC2c1ccc(F)c(F)c1` (single isomer, unassigned) [Example 96A, N^2-(4-(4-chloro-1H-imidazol-1-yl)-3-methoxyphenyl)-7-(3,4-difluorophenyl)-N^4-methyl-6,7-dihydro-5H-cyclopenta[d]pyrimidine-2,4-diamine], the IC50 fell in the range of 1.5 to 9.9 nM. On to `Cc1ncnn1-c1ccc(Nc2nc3c(c(N(C)C)n2)COCC3c2ccc(Cl)cc2)cc1F` (stereo not shown) [Example 67, 8-(4-chlorophenyl)-N^2-(3-fluoro-4-(5-methyl-1H-1,2,4-triazol-1-yl)phenyl)-N^4,N^4-dimethyl-7,8-dihydro-5H-pyrano[4,3-d]pyrimidine-2,4-diamine], for which the IC50 lay within 10 to 100 nM. On to `COc1cc(Nc2nc3c(c(N4CC[C@@H](F)C4)n2)COCC3c2ccc(OC(F)(F)F)cc2)ccc1-n1cnc(Cl)c1` (stereo partly shown) [Example 123A], for which the IC50 was 10 to 100 nM. Take `COc1cc(Nc2nc3c(c(N4CC[C@H](F)C4)n2)CCC3c2ccc(F)cc2)ccc1-n1cnc(Cl)c1` (single isomer, unassigned) [Example 37]: the IC50 was 1.5 to 9.9 nM.

For the compound `CCNc1nc(Nc2ccc(-n3cnc(Cl)c3)c(OC)c2)nc2c1COCC2c1ccc(C#N)cc1` (racemic) [Example 121, 4-(2-(4-(4-chloro-1H-imidazol-1-yl)-3-methoxyphenylamino)-4-(ethylamino)-7,8-dihydro-5H-pyrano[4,3-d]pyrimidin-8-yl)benzonitrile, TFA], the IC50 was 10 to 100 nM. As for `CNc1nc(Nc2ccc(-n3cnc(Cl)c3)c(OC)c2)nc2c1CCC2c1ccc(OC(F)(F)F)cc1` (racemic) [Example 97, N^2-(4-(4-Chloro-1H-imidazol-1-yl)-3-methoxyphenyl)-N^4-methyl-7-(4-(trifluoromethoxy)phenyl)-6,7-dihydro-5H-cyclopenta[d]pyrimidine-2,4-diamine], the IC50 lay in the range of 1.5 to 9.9 nM. As to `COc1cc(Nc2nc(NC(C)C)c3c(n2)C(c2ccccc2)CC3)ccc1-n1cnc(Cl)c1` (stereo not shown) [Example 10, N2-(4-(4-chloro-1H-imidazol-1-yl)-3-methoxyphenyl)-N4-isopropyl-7-phenyl-6,7-dihydro-5H-cyclopenta[d]pyrimidine-2,4-diamine], the IC50 was in the range of 1.5 to 9.9 nM.

On to `CNc1nc(Nc2ccc(-n3ncnc3C)c(F)c2)nc2c1COCC2c1ccc(Cl)cc1` (stereo not shown) [Example 69, 8-(4-chlorophenyl)-N^2-(3-fluoro-4-(5-methyl-1H-1,2,4-triazol-1-yl)phenyl)-N^4-methyl-7,8-dihydro-5H-pyrano[4,3-d]pyrimidine-2,4-diamine], for which the IC50 was 10 to 100 nM. On to `CNc1nc(Nc2ccc(Br)cc2OC)nc2c1CCC2c1ccccc1` (stereo not shown) [Example 221, N2-(4-bromo-2-methoxyphenyl)-N4-methyl-7-phenyl-6,7-dihydro-5H-cyclopenta[d]pyrimidine-2,4-diamine], for which the IC50 is over 1000 nM. On to `CNc1nc(Nc2ccc(-n3cnc(Cl)c3)c(OC)c2)nc2c1CCC2c1ccc(Cl)cc1` (racemic) [Example 94, N^2-(4-(4-Chloro-1H-imidazol-1-yl)-3-methoxyphenyl)-7-(4-chlorophenyl)-N^4-methyl-6,7-dihydro-5H-cyclopenta[d]pyrimidine-2,4-diamine], for which the IC50 was 1.5 to 9.9 nM.

For `COc1cc(Nc2nc3c(c(N4CC(F)(F)C4)n2)CN(S(C)(=O)=O)CC3c2ccc(F)cc2)ccc1-n1cnc(Cl)c1` (stereo not shown) [Example 160, N-(4-(4-chloro-1H-imidazol-1-yl)-3-methoxyphenyl)-4-(3,3-difluoroazetidin-1-yl)-8-(4-fluorophenyl)-6-(methylsulfonyl)-5,6,7,8-tetrahydropyrido[4,3-d]pyrimidin-2-amine], the IC50 was in the range of 10 to 100 nM. As for `CCNc1nc(Nc2ccc(-n3ncnc3C)c(F)c2)nc2c1COCC2c1ccc(F)c(F)c1` (racemic) [Example 116, 8-(3,4-difluorophenyl)-N4-ethyl-N2-(3-fluoro-4-(5-methyl-1H-1,2,4-triazol-1-yl)phenyl)-7,8-dihydro-5H-pyrano[4,3-d]pyrimidine-2,4-diamine, TFA], the concentration for half-maximal inhibition (IC50) is 10 to 100 nM. For the compound `CNc1nc(Nc2cc(F)cc(F)c2)nc2c1CCC2c1ccccc1` (stereo not shown) [Example 219, N2-(3,5-difluorophenyl)-N4-methyl-7-phenyl-6,7-dihydro-5H-cyclopenta[d]pyrimidine-2,4-diamine], the IC50 is over 1000 nM.

As to `CCNc1nc(Nc2ccc(-n3cnc(C)n3)c(F)c2)nc2c1CN(S(C)(=O)=O)CC2c1ccc(F)cc1` (stereo not shown) [Example 156, N4-ethyl-N2-(3-fluoro-4-(3-methyl-1H-1,2,4-triazol-1-yl)pheny)-8-(4-fluorophenyl)-6-(methylsulfonyl)-5,6,7,8-tetrahydropyrido[4,3-d]pyrimidine-2,4-diamine], the IC50 fell in the range of 1.5 to 9.9 nM. With `[2H]C([2H])([2H])Nc1nc(Nc2ccc(-n3cnc(Cl)c3)c(OC)c2)nc2c1CCC2c1ccccc1` (stereo not shown) [Example 176, N^2-(4-(4-Chloro-1H-imidazol-1-yl)-3-methoxyphenyl)-N^4-trideuteromethyl-7-phenyl-6,7-dihydro-5H-cyclopenta[d]pyrimidine-2,4-diamine], the IC50 lay within 1.5 to 9.9 nM.

The same assay, now with this note: 19 h, H4 APP751 SWE clone 8.20 cells, 19 h incubation; read-out: Activity Rating (Aβ42 cellular IC50), numeric value.
Take `CNc1nc(Nc2ccc(-n3ncnc3C)c(F)c2)nc2c1COCC2c1ccc(Br)cc1` (stereo not shown) [Example 73, 8-(4-bromophenyl)-N^2-(3-fluoro-4-(5-methyl-1H-1,2,4-triazol-1-yl)phenyl)-N^4-methyl-7,8-dihydro-5H-pyrano[4,3-d]pyrimidine-2,4-diamine]: the IC50 worked out at 3.8 nM. Take `CNc1nc(Nc2ccc(-n3cnc(C)n3)c(OC)c2)nc2c1CN(C)CC2c1ccc(F)cc1` (stereo not shown) [Example 198B, 8-(4-fluorophenyl)-N2-(3-methoxy-4-(3-methyl-1H-1,2,4-triazol-1-yl)phenyl)-N4,6-dimethyl-5,6,7,8-tetrahydropyrido[4,3-d]pyrimidine-2,4-diamine]: the 50% inhibitory concentration (IC50) is 15 nM. As for `CNc1nc(Nc2ccc(C#N)nc2)nc2c1CCC2c1ccccc1` (stereo not shown) [Example 230, 5-(4-(methylamino)-7-phenyl-6,7-dihydro-5H-cyclopenta[d]pyrimidin-2-ylamino)picolinonitrile], the IC50 is 42 nM. Turning to `CNc1nc(Nc2ccc(C#N)c(OC(F)(F)F)c2)nc2c1CCC2c1ccccc1` (stereo not shown) [Example 246, 4-(4-(methylamino)-7-phenyl-6,7-dihydro-5H-cyclopenta[d]pyrimidin-2-ylamino)-2-(trifluoromethoxy)benzonitrile], the 50% inhibitory concentration (IC50) stood at 31 nM. The same measure, in the same setting: the result for `CCNc1nc(Nc2ccc(-n3cnc(Cl)c3)c(OC)c2)nc2c1CN(C(=O)C1CC1)CC2c1ccccc1` (stereo not shown) [Example 132A, (2-(4-(4-chloro-1H-imidazol-1-yl)-3-methoxyphenylamino)-4-(ethylamino)-8-phenyl-7,8-dihydropyrido[4,3-d]pyrimidin-6(5H)-yl)(cyclopropyl)methanone] reads 15 nM.

The same assay, now with this note: H4 APP751 SWE clone 8.20 cells, 19 h incubation; class symbols; TFA; read-out: Activity Rating (Aβ42 cellular IC50).
For `COc1cc(Nc2nc3c(c(N4CC[C@@H](F)C4)n2)COC3c2ccc(F)cc2)ccc1-n1cnc(Cl)c1` (mixture of isomers) [Example 83, N-(4-(4-chloro-1H-imidazol-1-yl)-3-methoxyphenyl)-7-(4-fluorophenyl)-4-((R)-3-fluoropyrrolidin-1-yl)-5,7-dihydrofuro[3,4-d]pyrimidin-2-amine, 2 TFA], the IC50 was 10 to 100 nM.

The same assay, now with this note: H4 APP751 SWE clone 8.20 cells, 19 h incubation; class symbols; read-out: Activity Rating (Aβ42 cellular IC50).
In the case of `COc1cc(Nc2nc3c(c(N4CC(C)(O)C4)n2)CCC3c2ccc(F)cc2)ccc1-n1cnc(Cl)c1` (stereo not shown) [Example 189, 1-(2-(4-(4-chloro-1H-imidazol-1-yl)-3-methoxyphenylamino)-7-(4-fluorophenyl)-6,7-dihydro-5H-cyclopenta[d]pyrimidin-4-yl)-3-methylazetidin-3-ol], the half-maximal inhibitory concentration (IC50) was 1.5 to 9.9 nM. Turning to `CCNc1nc(Nc2ccc(-n3cnc(Cl)c3)c(OC)c2)nc2c1CN(S(=O)(=O)CC)CC2c1ccccc1` (stereo not shown) [Example 138, N2-(4-(4-chloro-1H-imidazol-1-yl)-3-methoxyphenyl)-N4-ethyl-6-(ethylsulfonyl)-8-phenyl-5,6,7,8-tetrahydropyrido[4,3-d]pyrimidine-2,4-diamine], the IC50 was 10 to 100 nM. `CNc1nc(Nc2ccc(-n3cnc(Cl)c3)c(OC)c2)nc2c1CN(S(C)(=O)=O)CC2c1ccc(F)cc1` (stereo not shown) [Example 154A, N2-(4-(4-chloro-1H-imidazol-1-yl)-3-methoxyphenyl)-8-(4-fluorophenyl)-N4-methyl-6-(methylsulfonyl)-5,6,7,8-tetrahydropyrido[4,3-d]pyrimidine-2,4-diamine]: the 50% inhibitory concentration (IC50) is 1.5 to 9.9 nM. For the compound `CCNc1nc(Nc2ccc(-n3cnc(Cl)c3)c(OC)c2)nc2c1CCN(C(=O)OC)C2c1ccc(F)cc1` (stereo not shown) [Example 170, methyl 2-(4-(4-chloro-1H-imidazol-1-yl)-3-methoxyphenylamino)-4-(ethylamino)-8-(4-fluorophenyl)-5,6-dihydropyrido[3,4-d]pyrimidine-7(8H)-carboxylate], the IC50 was 10 to 100 nM.

With `CNc1nc(Nc2ccc(-n3ncnc3C)c(F)c2)nc2c1CCC2c1ccccc1` (single isomer, unassigned) [Example 3B, N^2-(3-fluoro-4-(5-methyl-1H-1,2,4-triazol-1-yl)phenyl)-N^4-methyl-7-phenyl-6,7-dihydro-5H-cyclopenta[d]pyrimidine-2,4-diamine], the IC50 is 10 to 100 nM.

Consider `CNc1nc(Nc2ccc(-n3cnc(C)n3)c(OC)c2)nc2c1CN(C)CC2c1ccc(F)cc1` (stereo not shown) [Example 198, 8-(4-fluorophenyl)-N2-(3-methoxy-4-(3-methyl-1H-1,2,4-triazol-1-yl)phenyl)-N4,6-dimethyl-5,6,7,8-tetrahydropyrido[4,3-d]pyrimidine-2,4-diamine], for which the concentration for half-maximal inhibition (IC50) was 10 to 100 nM.

Regarding `CNc1nc(Nc2ccc(-n3cnc(Cl)c3)c(OC)c2)nc2c1CCC2c1cc(F)cc(F)c1` (stereo not shown) [Example 102A, N^2-(4-(4-Chloro-1H-imidazol-1-yl)-3-methoxyphenyl)-7-(3,5-difluorophenyl)-N^4-methyl-6,7-dihydro-5H-cyclopenta[d]pyrimidine-2,4-diamine], the IC50 is 1.5 to 9.9 nM.
